This is an account of results in patent US10806707B2, “Cannabis oil compositions and methods for preparation thereof” (priority 2015, dated 2020).

What all share (assay type): cell-based
The target of assay [1] is T1, CNR2 (also known as CB2) (Homo sapiens, UniProt P34972).
T1 construct: β-galactosidase enzyme fragment (implied by the complementation read-out)
Put plainly: β-arrestin GPCR assay (PathHunter), CNR2 activation. As to conditions: CNR2, β-arrestin recruitment.

Assay [2] addresses T2, CNR1 (also known as CB1) (Homo sapiens, UniProt P21554).
T2 construct: β-galactosidase enzyme fragment (implied by the complementation read-out)
As to conditions: read-out: CNR1 cAMP EC50.

Assay [3] has as its target T1, CNR2 (also known as CB2). Put plainly: cAMP competitive inhibition immunoassay (HitHunter), CNR2 activation. As to conditions: CNR2, cAMP assay.
For assay [4], the target named is T2, CNR1 (also known as CB1). The settings on record: read-out: CNR1 β-Arrestin EC50.

Like-named read-outs stand apart in the source and are kept apart here. Bounds are passed on as bounds.

T1 sequence (P34972 whole entry, species assumed, the tested form may be a part): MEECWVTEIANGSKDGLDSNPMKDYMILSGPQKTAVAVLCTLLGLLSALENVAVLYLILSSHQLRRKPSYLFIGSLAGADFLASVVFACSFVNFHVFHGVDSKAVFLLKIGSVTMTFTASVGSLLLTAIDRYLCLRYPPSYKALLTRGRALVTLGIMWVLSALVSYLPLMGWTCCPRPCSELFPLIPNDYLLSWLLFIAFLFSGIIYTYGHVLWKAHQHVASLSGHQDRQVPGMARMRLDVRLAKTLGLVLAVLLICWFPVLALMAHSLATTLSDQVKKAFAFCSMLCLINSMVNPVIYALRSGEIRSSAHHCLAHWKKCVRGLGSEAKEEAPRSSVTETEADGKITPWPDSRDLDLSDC
T2 sequence (P21554 whole entry, species assumed, the tested form may be a part): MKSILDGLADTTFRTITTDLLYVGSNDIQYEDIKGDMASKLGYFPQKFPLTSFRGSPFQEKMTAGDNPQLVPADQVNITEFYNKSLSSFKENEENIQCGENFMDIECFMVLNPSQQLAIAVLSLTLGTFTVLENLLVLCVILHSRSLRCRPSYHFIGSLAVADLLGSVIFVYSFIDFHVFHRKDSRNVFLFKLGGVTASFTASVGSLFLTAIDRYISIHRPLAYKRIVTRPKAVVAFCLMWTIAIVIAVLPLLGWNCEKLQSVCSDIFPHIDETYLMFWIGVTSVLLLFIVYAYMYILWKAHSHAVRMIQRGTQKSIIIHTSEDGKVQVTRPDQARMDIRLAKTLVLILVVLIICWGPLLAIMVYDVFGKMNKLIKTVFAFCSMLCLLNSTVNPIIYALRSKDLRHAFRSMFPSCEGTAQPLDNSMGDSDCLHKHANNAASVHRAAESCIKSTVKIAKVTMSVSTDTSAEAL

In the case of `CCCCCc1cc(O)c2c(c1)OC(C)(C)[C@@H]1CCC(CO)=C[C@@H]21` [Example 11-OH-THC], the EC50 on CNR2 (also known as CB2) [1] was above 16700 nM; on CNR1 (also known as CB1) [2] it was 10.8 nM; on CNR2 (also known as CB2) [3] it was 571 nM; at CNR1 (also known as CB1) [4] it was above 16700 nM.
